Publication PMC9403976, “Elucidating the path to Plasmodium prolyl-tRNA synthetase inhibitors that overcome halofuginone resistance” (Nature Communications, 2022)
“And” between values parts separate entries of the source, which are not always exact repeats. Equal entries are not always repeated. Where two headings read alike, the source gives them in different places.

What was measured:
[1] = biological target: T1, PfcProRS (Plasmodium falciparum, UniProt Q8I5R7); assay type: binding; conditions: for dose-response signal (normalized), SI Fig 8: single replicates, listed as NCP26 (3)
T1 construct: made in house; host or cells: E. coli SoluBL-21
T1 sequence (Q8I5R7 249-746): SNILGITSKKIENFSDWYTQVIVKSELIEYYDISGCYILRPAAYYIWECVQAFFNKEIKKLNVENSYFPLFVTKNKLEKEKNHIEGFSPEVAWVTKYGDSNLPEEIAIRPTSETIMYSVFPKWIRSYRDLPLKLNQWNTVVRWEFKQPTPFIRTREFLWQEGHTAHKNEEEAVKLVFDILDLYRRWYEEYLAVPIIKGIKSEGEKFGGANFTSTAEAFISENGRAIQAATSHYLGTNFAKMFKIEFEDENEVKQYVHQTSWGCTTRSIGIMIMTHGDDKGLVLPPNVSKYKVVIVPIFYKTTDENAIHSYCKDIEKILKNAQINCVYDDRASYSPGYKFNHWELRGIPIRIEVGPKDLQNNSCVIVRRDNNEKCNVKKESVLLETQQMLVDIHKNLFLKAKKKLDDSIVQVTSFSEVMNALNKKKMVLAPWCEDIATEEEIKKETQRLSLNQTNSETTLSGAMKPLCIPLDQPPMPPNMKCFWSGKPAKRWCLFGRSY

[2] = system: P. falciparum Dd2-2D4; assay: P. falciparum asexual blood stage (ABS) growth assay, SYBR Green, 72 h, wild-type parasites; assay type: cell-based, Plasmodium falciparum; conditions: for ABS growth dose-response, normalized signal (Replicates 1-3) / parasite growth, replicate wells (Fig 1b): Dd2-2D4
Procedure: Parasites were maintained under standard culture conditions as described previously[56],[57]. […] The P. falciparum Dd2 cell lines used in this study (Dd2-2D4, halofuginone-induced, and HFGR-I) have previously undergone whole genome sequencing in our labs.
This assay was performed as previously described[8]. In short, P. falciparum erythrocytic-stage parasites at 1% parasitemia and 1% hematocrit in RPMI + 0.5% Albumax were seeded at 40 μL/well in 384-well plates with test compounds in triplicate, dose-response format with 10 μM dihydroartemisinin as a kill-control and blank (no compound) wells as a growth-control. […] After 72 h, growth was quantified by measuring fluorescence (Molecular Devices SpectraMax iD5) following SYBR Green 1 staining. Data were analyzed in Excel and plotted in PRISM (V. 8.4.3–9.1.0, GraphPad).

[3] = biological target: HsProRS (Homo sapiens, UniProt P07814); assay: TR-FRET ligand displacement assay with tracer MAT379 (CoraFluor-1-Halo and anti-His6 antibody formats); assay type: binding; set-up: made in house; host or cells: E. coli SoluBL-21; conditions: for TR-FRET dose-response, normalized signal (SI Fig 11): individual replicates; for TR-FRET dose-response, normalized signal (SI Fig 11) / normalized TR-FRET ligand displacement signal, dose-response replicates (SI Fig 6): listed as NCP26 (3)
HsProRS, sequence (P07814 996-1512): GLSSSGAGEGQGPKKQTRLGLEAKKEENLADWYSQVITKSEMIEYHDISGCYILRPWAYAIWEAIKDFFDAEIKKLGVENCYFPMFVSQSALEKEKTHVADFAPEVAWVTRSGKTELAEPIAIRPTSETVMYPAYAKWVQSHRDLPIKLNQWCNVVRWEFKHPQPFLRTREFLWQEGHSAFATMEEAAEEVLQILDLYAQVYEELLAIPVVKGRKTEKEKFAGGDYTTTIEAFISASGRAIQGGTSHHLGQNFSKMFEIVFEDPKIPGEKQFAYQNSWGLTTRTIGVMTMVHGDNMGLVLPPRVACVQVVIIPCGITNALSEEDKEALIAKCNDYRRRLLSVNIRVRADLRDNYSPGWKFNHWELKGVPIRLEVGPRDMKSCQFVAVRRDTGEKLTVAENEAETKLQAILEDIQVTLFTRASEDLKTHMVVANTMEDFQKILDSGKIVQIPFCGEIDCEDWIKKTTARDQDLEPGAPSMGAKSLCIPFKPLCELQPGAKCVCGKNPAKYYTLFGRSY

How did the “dose-response signal (normalized), SI Fig 8” value ([1]; Log[inhibitor] (M) -7.506) turn out when `O=C(NC1Cc2ccccc2C1)c1nccnc1NC(=O)N1CCCCC1` [NCP26] was run?
The value was 2.32E-01 and 1.89E-01 and 1.64E-01 and 2.04E-01 and 7.73E-02 and 1.02E-01.

What about the “dose-response signal (normalized), SI Fig 8” value ([1]; Log[inhibitor] (M) -7.796) of the same molecule?
Its value is 3.08E-01 and 3.64E-01 and 4.11E-01 and 4.02E-01 and 3.25E-01 and 3.10E-01.

And the “dose-response signal (normalized), SI Fig 8” value ([1]; Log[inhibitor] (M) -8.097)?
The value was 5.23E-01 and 5.87E-01 and 9.12E-01 and 7.05E-01 and 5.54E-01 and 7.03E-01.

What about the “dose-response signal (normalized), SI Fig 8” value ([1]; Log[inhibitor] (M) -8.407) of the same molecule?
The value was 7.84E-01 and 7.32E-01 and 7.98E-01 and 9.93E-01 and 8.87E-01 and 8.26E-01.

What about the “dose-response signal (normalized), SI Fig 8” value ([1]; Log[inhibitor] (M) -8.708) of the same molecule?
The value was 9.57E-01 and 1.08E+00 and 9.98E-01 and 8.58E-01 and 8.40E-01 and 9.70E-01.

What about the “dose-response signal (normalized), SI Fig 8” value ([1]; Log[inhibitor] (M) -9.018) of the same molecule?
Its value is 9.48E-01 and 9.31E-01 and 1.13E+00 and 1.15E+00 and 1.02E+00 and 9.66E-01.

What about the “dose-response signal (normalized), SI Fig 8” value ([1]; Log[inhibitor] (M) -9.319) of the same molecule?
Its value is 9.22E-01 and 1.00E+00 and 1.07E+00 and 1.03E+00 and 1.09E+00 and 9.57E-01.

And the “dose-response signal (normalized), SI Fig 8” value ([1]; Log[inhibitor] (M) -9.620)?
The value was 1.10E+00 and 1.04E+00 (2×) and 9.95E-01 and 1.13E+00 and 9.21E-01.

What about the “dose-response signal (normalized), SI Fig 8” value ([1]; Log[inhibitor] (M) -9.921) of the same molecule?
Its value is 9.45E-01 and 1.02E+00 and 1.05E+00 and 9.10E-01 and 9.27E-01 and 9.41E-01.

What about the “dose-response signal (normalized), SI Fig 8” value ([1]; Log[inhibitor] (M) -10.097) of the same molecule?
Its value is 1.10E+00 and 1.01E+00 and 1.17E+00 and 9.78E-01 and 8.32E-01 and 1.04E+00.

And the “dose-response signal (normalized), SI Fig 8” value ([1]; Log[inhibitor] (M) -10.585)?
Its value is 1.14E+00 and 1.18E+00 and 8.42E-01 and 8.75E-01 and 9.70E-01 and 1.02E+00.

And the “PfcProRS -- best Kd” value ([1]; SI Fig 16a, values on -log scale)?
Its value is 8.599.

And the “ABS growth dose-response, normalized signal (Replicates 1-3)” value ([2]; Log[inhibitor] (M) -4.699)?
Its value is 0.

And the “parasite growth, replicate wells (Fig 1b)” value (“parasite growth” for short) ([2]; Log[inhibitor] (M) -4.699)?
Its value is 0.00E+00.

And the “ABS growth dose-response, normalized signal (Replicates 1-3)” value ([2]; Log[inhibitor] (M) -5.000)?
Its value is 0.

And the “parasite growth” value ([2]; Log[inhibitor] (M) -5.000)?
Its value is 0.00E+00.

What about the “ABS growth dose-response, normalized signal (Replicates 1-3)” value ([2]; Log[inhibitor] (M) -5.301) of the same molecule?
Its value is 0.

And the “parasite growth” value ([2]; Log[inhibitor] (M) -5.301)?
Its value is 0.00E+00.

What about the “ABS growth dose-response, normalized signal (Replicates 1-3)” value ([2]; Log[inhibitor] (M) -5.602) of the same molecule?
Its value is 0.

What about the “parasite growth” value ([2]; Log[inhibitor] (M) -5.602) of the same molecule?
The value was 0.00E+00.

And the “ABS growth dose-response, normalized signal (Replicates 1-3)” value ([2]; Log[inhibitor] (M) -5.903)?
The value was 0.

And the “parasite growth” value ([2]; Log[inhibitor] (M) -5.903)?
Its value is 0.00E+00.

And the “ABS growth dose-response, normalized signal (Replicates 1-3)” value ([2]; Log[inhibitor] (M) -6.204)?
Its value is 0.

And the “parasite growth” value ([2]; Log[inhibitor] (M) -6.204)?
The value was 0.00E+00.

And the “ABS growth dose-response, normalized signal (Replicates 1-3)” value ([2]; Log[inhibitor] (M) -6.505)?
The value was 0.

What about the “parasite growth” value ([2]; Log[inhibitor] (M) -6.505) of the same molecule?
The value was 0.00E+00.

And the “parasite growth” value ([2]; Log[inhibitor] (M) -6.806, listed as NCP26 (3))?
The value was 6.00E+00 (2×) and 5.00E+00.

What about the “parasite growth” value ([2]; Log[inhibitor] (M) -7.107, listed as NCP26 (3)) of the same molecule?
Its value is 3.30E+01 and 2.80E+01 and 3.00E+01.

What about the “parasite growth” value ([2]; Log[inhibitor] (M) -7.408, listed as NCP26 (3)) of the same molecule?
The value was 9.50E+01 and 9.40E+01 and 9.90E+01.

And the “parasite growth” value ([2]; Log[inhibitor] (M) -7.709, listed as NCP26 (3))?
Its value is 1.09E+02 and 1.04E+02 and 1.02E+02.

What about the “ABS growth dose-response, normalized signal (Replicates 1-3)” value ([2]; Log[inhibitor] (M) -8.010) of the same molecule?
Its value is 101.

And the “parasite growth” value ([2]; Log[inhibitor] (M) -8.010)?
The value was 1.01E+02.

What about the EC50 ([2]; Plasmodium falciparum, DD2, SI Fig 16b, values on -log scale, read-out: ABS - Dd2-2D4 (converted)) of the same molecule?
The EC50 was 67.5 nM.

What about the “fold increased affinity in the presence of proline” value ([3]; 100 μM proline vs no substrates) of the same molecule?
The value was greater than 750 fold.

What about the Kd ([3]; HsProRS (KD [nM]) + ATP, 500 μM ATP, 250 nM MAT379) of the same molecule?
The Kd was 678 nM.

What about the Kd ([3]; HsProRS (KD [nM]) −, absence of substrates, 250 nM MAT379) of the same molecule?
Its Kd is 271 nM.

And the Kd ([3]; HsProRS - best Kd, SI Fig 16a, values on -log scale)?
The Kd was 0.351 nM.

What about the “TR-FRET dose-response, normalized signal (SI Fig 11)” value ([3]; Log[inhibitor] (M) -5.000) of the same molecule?
Its value is 3.90E-02 and 5.46E-02 and 7.26E-02.

What about the “normalized TR-FRET ligand displacement signal, dose-response replicates (SI Fig 6)” value ([3]; Log[inhibitor] (M) -5.000) of the same molecule?
Its value is -7.74E-03 and 7.74E-03.

And the “TR-FRET dose-response, normalized signal (SI Fig 11)” value ([3]; Log[inhibitor] (M) -5.301)?
The value was 8.66E-02 (2×) and 6.05E-02.

And the “normalized TR-FRET ligand displacement signal, dose-response replicates (SI Fig 6)” value ([3]; Log[inhibitor] (M) -5.301)?
Its value is 1.56E-02 and 1.09E-02.

And the “TR-FRET dose-response, normalized signal (SI Fig 11)” value ([3]; Log[inhibitor] (M) -5.601)?
The value was 1.54E-01 and 1.44E-01 and 1.56E-01.
